Data on eleven molecules can be found in patent US20220409643A1, “ROR Gamma T Inhibitors and Topical Uses Thereof” (Dermira, inc., priority 2019, published 2022).

For the first experiment, the system named is IL17A. As to the kind of experiment: skin Resident Immune Cell Assay (sRICA), Th17 model, IL17A protein in media. The conditions noted are these: 100 uM solution in 1% DMSO/OD applied topically to human skin; media collected 24 hours after Th17 activation. The class given is cell-based. Summed up:
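Human surgical skin, dermatomed to 750μm, 8 mm biopsies cultured air-liquid in transwells; RORγt inhibitors applied topically at 100 uM in 1% DMSO/OD, up to 24 h before Th17 activation by cytokine/antibody cocktail. IL17A measured in media 24 h post-activation by SiMoA, expressed as % of activated untreated skin.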
As to `CC(C)(C)c1ccc(NC(=O)[C@H](NC(=O)[C@@H]2CNC(=O)C2)c2ccc3c(c2)CCO3)cc1F` [(3S)-N-(2-((4-tert-butyl-3-fluorophenyl)amino)-1-(2,3-dihydro-1-benzofuran-5-yl)-2-oxoethyl)-5-oxopyrrolidine-3-carboxamide], the inhibition at 100 µM was found to be 48.7%. On to `COCc1ccc([C@@H](NC(=O)[C@@H]2CNC(=O)C2)C(=O)Nc2ccc(CC(C)(C)C)c(F)c2)cc1` [(3S)-N-((1R)-2-((4-(2,2-dimethylpropyl)-3-fluorophenyl)amino)-1-(4-(methoxymethyl)phenyl)-2-oxoethyl)-5-oxopyrrolidine-3-carboxamide], for which the inhibition at 100 µM worked out at 52.9%. On the same count and under the same terms, the figure for `COCc1ccc([C@@H](NC(=O)[C@@H]2CNC(=O)C2)C(=O)Nc2ccc(C(C)(C)C)c(F)c2)cc1` [(3S)-N-((1R)-2-((4-tert-butyl-3-fluorophenyl)amino)-1-(4-(methoxymethyl)phenyl)-2-oxoethyl)-5-oxopyrrolidine-3-carboxamide] is 38.7%; for `COc1ccc2c(n1)CCN(C(=O)Cc1cc(O)no1)[C@H]2C(=O)Nc1ccc(C(C)(C)C)c(F)c1` [(5R)-N-(4-tert-butyl-3-fluorophenyl)-6-((3-hydroxy-1,2-oxazol-5-yl)acetyl)-2-methoxy-5,6,7,8-tetrahydro-1,6-naphthyridine-5-carboxamide] it is 69.5%.

The same experiment, now with this note: Homo sapiens, 24 h, 100 uM solution in 1% DMSO/OD applied topically to human skin; media collected 24 hours after Th17 activation.
Consider `COCc1ccc([C@@H](NC(=O)[C@@H]2CNC(=O)C2)C(=O)Nc2cc(F)c([Si](C)(C)C)c(F)c2)cc1` [(3S)-N-((1R)-2-((3,5-difluoro-4-(trimethylsilyl)phenyl)amino)-1-(4-(methoxymethyl)phenyl)-2-oxoethyl)-5-oxopyrrolidine-3-carboxamide], for which the inhibition at 100 µM stood at 23.6%. With `COc1ccc2c(c1)OCCN(C(=O)Cc1cc(O)no1)[C@H]2C(=O)Nc1cc(F)c([Si](C)(C)C)c(F)c1` [(5R)-N-(3,5-difluoro-4-(trimethylsilyl)phenyl)-4-((3-hydroxy-1,2-oxazol-5-yl)acetyl)-8-methoxy-2,3,4,5-tetrahydro-1,4-benzoxazepine-5-carboxamide], the inhibition at 100 µM was found to be 58.1%.

Consider `COCc1ccc2c(n1)CCN(C(=O)Cc1cc(O)no1)[C@H]2C(=O)Nc1cc(F)c([Si](C)(C)C)c(F)c1` [(5R)-N-(3,5-difluoro-4-(trimethylsilyl)phenyl)-6-((3-hydroxy-1,2-oxazol-5-yl)acetyl)-2-(methoxymethyl)-5,6,7,8-tetrahydro-1,6-naphthyridine-5-carboxamide], for which the inhibition at 100 µM is 60.1%. On to `COc1ccc2c(n1)CCN(C(=O)Cc1cc(O)no1)[C@H]2C(=O)Nc1cc(F)c([Si](C)(C)C)c(F)c1` [(5R)-N-(3,5-difluoro-4-(trimethylsilyl)phenyl)-6-((3-hydroxy-1,2-oxazol-5-yl)acetyl)-2-methoxy-5,6,7,8-tetrahydro-1,6-naphthyridine-5-carboxamide], for which the inhibition at 100 µM was determined as 49.4%.

`COCc1ccc2c(n1)CCN(C(=O)c1cc(O)no1)[C@H]2C(=O)Nc1cc(F)c([Si](C)(C)C)c(F)c1` [(5R)-N-(3,5-difluoro-4-(trimethylsilyl)phenyl)-6-((3-hydroxy-1,2-oxazol-5-yl)carbonyl)-2-(methoxymethyl)-5,6,7,8-tetrahydro-1,6-naphthyridine-5-carboxamide]: the inhibition at 100 µM was -15.5%.

As to `COc1ccc2c(n1)CCN(C(=O)Cc1cc(O)no1)[C@H]2C(=O)Nc1ccc([Si](C)(C)C)c(F)c1` [(5R)-N-(3-fluoro-4-(trimethylsilyl)phenyl)-6-((3-hydroxy-1,2-oxazol-5-yl)acetyl)-2-methoxy-5,6,7,8-tetrahydro-1,6-naphthyridine-5-carboxamide], the inhibition at 100 µM worked out at 22.2%. Consider `CC[Si](C)(C)c1c(F)cc(NC(=O)[C@H]2c3ccc(COC)nc3CCN2C(=O)c2cc(O)no2)cc1F` [(5R)-N-(4-(ethyl(dimethyl)silyl)-3,5-difluorophenyl)-6-((3-hydroxy-1,2-oxazol-5-yl)carbonyl)-2-(methoxymethyl)-5,6,7,8-tetrahydro-1,6-naphthyridine-5-carboxamide], for which the inhibition at 100 µM is 48.5%.
